Data as given in US20240116985A1, “STAPLED PEPTIDES AND METHODS THEREOF” (priority 2020, published 2024).
Where “and” joins values, the source holds several entries; their conditions need not be identical. Identical values can stand only once. Like-named read-outs stand apart in the source and are kept apart here.

How the values were obtained:
[1] = system: TCF/LEF luciferase Reporter in DLD1 cells; assay: TCF reporter assay (DLD1 TCF/LEF luciferase reporter, Bright-Glo); assay type: cell-based; conditions: for DLD1 TCF c2 BrightGlo % Inhibition: replicates
Summary of the method: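 DLD1 cells stably carrying a TCF/LEF luciferase reporter were plated at 5000 cells/well in RPMI + 4% FBS and treated overnight with a 1:2 compound dilution series. Bright-Glo luminescence read on day 3; viability by CellTiter-Glo. Absolute IC50 determined.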

[2] = molecular target: T1, full-length beta-Catenin (Uniprot ID P35222) (Homo sapiens, UniProt P35222); assay: Fluorescence polarization IC50 (beta-catenin / 5FAM-TCF4 10-53 competition); assay type: binding
T1 construct: 10 nM full-length beta-Catenin (Uniprot ID P35222)
T1 sequence (P35222 1-781): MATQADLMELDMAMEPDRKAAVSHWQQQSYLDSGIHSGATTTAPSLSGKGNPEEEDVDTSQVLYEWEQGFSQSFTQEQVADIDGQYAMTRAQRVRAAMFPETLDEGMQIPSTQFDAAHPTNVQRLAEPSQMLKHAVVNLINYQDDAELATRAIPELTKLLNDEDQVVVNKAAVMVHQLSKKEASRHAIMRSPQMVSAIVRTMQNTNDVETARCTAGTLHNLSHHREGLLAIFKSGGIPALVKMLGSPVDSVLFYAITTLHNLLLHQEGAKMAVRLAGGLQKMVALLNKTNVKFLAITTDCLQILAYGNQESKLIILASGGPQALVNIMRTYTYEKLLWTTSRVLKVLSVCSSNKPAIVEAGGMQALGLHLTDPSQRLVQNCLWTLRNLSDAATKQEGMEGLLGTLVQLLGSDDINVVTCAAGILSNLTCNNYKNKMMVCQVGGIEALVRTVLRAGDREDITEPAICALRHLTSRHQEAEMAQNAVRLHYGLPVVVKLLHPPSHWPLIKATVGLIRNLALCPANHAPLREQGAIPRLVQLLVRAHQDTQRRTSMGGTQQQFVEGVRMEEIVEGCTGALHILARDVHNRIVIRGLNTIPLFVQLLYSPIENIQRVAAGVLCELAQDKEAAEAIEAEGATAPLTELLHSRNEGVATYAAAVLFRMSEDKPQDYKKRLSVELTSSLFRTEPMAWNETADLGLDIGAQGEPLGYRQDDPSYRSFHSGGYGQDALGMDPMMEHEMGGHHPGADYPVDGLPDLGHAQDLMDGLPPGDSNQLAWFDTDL

CHI Log D procedure = assay type: physicochemical; conditions: for CHI Log D / logD: pH 7.4; for chromatographic logD: pH 7.4, CHI Log D
[3] = molecular target: T2, beta-catenin/TCF4 engagement (Homo sapiens, UniProt P35222); assay: Nano-BRET target engagement assay (B-cat-Halo & TCF4-Luc in HEK293 cells); assay type: cell-based
T2 construct: expressed in transfected cells; host or cells: HEK293
T2 sequence (P35222 1-781): T1 sequence (P35222 1-781)

[4] = Abs IC50, read-out: DLD1 reporter assay Abs IC50
[5] = first dose = 20 uM (plate map), 20 µM
[6] = read-out: DLD1 4% Abs IC50, DLD1 4%
[7] = third dose = 5 uM (plate map), 5 µM
[8] = absolute IC50, read-out: NanoBRET Abs IC50
[9] = absolute IC50, read-out: DLD1 reporter assay Abs IC50
[10] = fluorescence polarization, beta-catenin, read-out: FP EC50
[11] = Peptide + ST-Protein (SAINT-Protein lipid)
[12] = read-out: DLD1 4% Abs IC50, DLD1 reporter, 4%, absolute IC50
[13] = fluorescence polarization, read-out: beta-Catenin FP IC50

Row | Compound | DLD1 TCF c2 BrightGlo % Inhibition [1, 5] | DLD1 TCF c2 BrightGlo % Inhibition ([1]; 0.625 µM) | DLD1 TCF c2 BrightGlo % Inhibition ([1]; 1.25 µM) | DLD1 TCF c2 BrightGlo % Inhibition ([1]; 2.5 µM) | DLD1 TCF c2 BrightGlo % Inhibition ([1]; 10 µM) | DLD1 TCF c2 BrightGlo % Inhibition [1, 7] | IC50 ([2]; read-out: beta-Catenin FP IC50) [nM] | CHI Log D (CHI Log D procedure) | chromatographic logD (CHI Log D procedure) | IC50 [3, 8] [µM] | IC50 [1, 9] [µM] | other results
1 | CC(=O)N1CCC[C@]12CC=CCCCC1(CCCC=CCCCOC(=O)N3CC[C@@](C(=O)N[C@@H](Cc4ccsc4)C(=O)N[C@@H](Cc4csc5ccccc45)C(=O)N[C@@H](CCC(N)=O)C(N)=O)(C3)NC(=O)[C@H](CC(N)=O)NC(=O)[C@H](Cc3ccccc3)NC(=O)[C@H](C)NC(=O)[C@H](C)NC(=O)[C@H](CN(CC(=O)O)CC(F)(F)F)NC(=O)[C@H](CC(=O)O)NC1=O)NC(=O)[C@H](CC(C)(C)C)NC(=O)[C@H](CC(=O)O)NC2=O (single isomer, unassigned) [I-762, Ac-PL3-Asp-Npg-B5-Asp-TfeGA-Ala-Ala-Phe-Asn-PyrS2-3Thi-BztA-Gln-NH2] | 75.7% and 81.9% and 78.7% | 14.5% and 18.6% and 9.3% | 12.9% and 16.9% and 5.5% | 12.9% and 17.4% and 11.9% | 56.8% and 70.2% and 65.6% | 28.2% and 45.2% and 44.6% | 5 | 2.247 |  |  |  | IC50 [1, 4]: 6 µM; IC50 ([1]; Peptide + ST-Protein (SAINT-Protein lipid), read-out: TCF Reporter Assay Abs IC50): 0.3 µM; IC50 ([1]; Peptide only, read-out: TCF Reporter Assay Abs IC50): 7 µM; IC50 [1, 6]: 7.9 µM; IC50 ([2]; read-out: FP EC50): 6 nM; IC50 ([2]; read-out: bCat FP IC50): 6 nM; logD (CHI Log D procedure): 2.2; IC50 ([3]; Abs IC50, read-out: NanoBRET Abs IC50): 10 µM; IC50 ([3]; Peptide + ST-Protein (SAINT-Protein lipid), read-out: Nano-BRET Abs IC50): 0.7 µM; IC50 ([3]; Peptide only, read-out: Nano-BRET Abs IC50): 11 µM; IC50 ([3]; read-out: NanoBRET Abs IC50): 14 µM
2 | CC(=O)N1CCC[C@]12CC=CCCCC1(CCCC=CCCCOC(=O)N3CC[C@@](C(=O)N[C@@H](Cc4ccsc4)C(=O)N[C@@H](Cc4csc5ccccc45)C(=O)N[C@@H](CCC(N)=O)C(N)=O)(C3)NC(=O)[C@H](CC(N)=O)NC(=O)[C@H](Cc3ccccc3)NC(=O)[C@H](C)NC(=O)[C@H](C)NC(=O)[C@H](CC(=O)O)NC(=O)[C@H](CC(=O)O)NC1=O)NC(=O)[C@H](CC(C)(C)C)NC(=O)[C@H](CC(=O)O)NC2=O (stereo partly drawn) [I-686, Ac-PL3-Asp-Npg-B5-Asp-Asp-Ala-Ala-Phe-Asn-PyrS2-3Thi-BztA-Gln-NH2] |  |  |  |  |  |  |  | 1.997 |  |  |  | IC50 [1, 4]: 5.6 µM; logD (CHI Log D procedure): 2.0
3 | CC(=O)N1CCC[C@]12CC=CCCCC1(CCCC=CCCCOC(=O)N3CC[C@@](C(=O)N[C@@H](Cc4ccsc4)C(=O)N[C@@H](Cc4csc5ccccc45)C(=O)N[C@@H](CCC(N)=O)C(N)=O)(C3)NC(=O)[C@H](Cc3ccccc3)NC(=O)[C@H](Cc3ccccc3)NC(=O)[C@H](C)NC(=O)[C@H](C)NC(=O)[C@H](Cc3cccc(C(=O)O)c3)NC(=O)[C@H](CC(=O)O)NC1=O)NC(=O)[C@H](CC(C)(C)C)NC(=O)[C@H](CC(=O)O)NC2=O (stereo partly drawn) [I-852, Ac-PL3-Asp-Npg-B5-Asp-3COOHF-Ala-Ala-Phe-Phe-PyrS2-3Thi-BztA-Gln-NH2] |  |  |  |  |  |  | 7 |  | 2.4 | 2.8 |  | IC50 [1, 6]: 1.4 µM
4 | CC(=O)N1CCC[C@]12CC=CCCCC1(CCCC=CCCCOC(=O)N3CC[C@@](C(=O)N[C@@H](Cc4ccccc4Br)C(=O)N[C@@H](Cc4csc5ccccc45)C(=O)N[C@@H](CCC(N)=O)C(N)=O)(C3)NC(=O)[C@H](CC(N)=O)NC(=O)[C@H](Cc3ccccc3)NC(=O)[C@H](C)NC(=O)[C@H](C)NC(=O)[C@H](CN(CC(=O)O)CC(F)(F)F)NC(=O)[C@H](CC(=O)O)NC1=O)NC(=O)[C@H](CC(C)(C)C)NC(=O)[C@H](CC(=O)O)NC2=O (stereo partly drawn) [I-924, Ac-PL3-Asp-Npg-B5-Asp-TfeGA-Ala-Ala-Phe-Asn-PyrS2-2BrF-BztA-Gln-NH2] |  |  |  |  |  |  | 7 |  | 2.28 | 3.3 | 4.5 | 
5 | CC(=O)N1CCC[C@]12CC=CCCCC1(CCCC=CCCCOC(=O)N3CC[C@@](C(=O)N[C@@H](Cc4ccccc4C(F)(F)F)C(=O)N[C@@H](Cc4csc5ccccc45)C(=O)N[C@@H](CCC(N)=O)C(N)=O)(C3)NC(=O)[C@H](CC(N)=O)NC(=O)[C@H](Cc3ccccc3)NC(=O)[C@H](C)NC(=O)[C@H](C)NC(=O)[C@H](CN(CC(=O)O)CC(F)(F)F)NC(=O)[C@H](CC(=O)O)NC1=O)NC(=O)[C@H](CC(C)(C)C)NC(=O)[C@H](CC(=O)O)NC2=O (stereo partly drawn) [I-927, Ac-PL3-Asp-Npg-B5-Asp-TfeGA-Ala-Ala-Phe-Asn-PyrS2-2F3MeF-BztA-Gln-NH2] | 77.1% and 77.4% and 80.3% | 3.5% and 8.0% and 14.3% | 8.7% and 15.1% and 18.6% | 23.9% and 33.7% and 42.0% | 68.0% and 70.2% and 72.9% | 53.1% and 55.2% and 60.1% | 11 | 2.313 |  | 8.2 | 4.2 | IC50 [2, 10]: 11 nM; IC50 ([3]; read-out: NanoBRET Abs IC50): 8.2 µM
6 | CC(=O)N1CCC[C@]12CC=CCCCC1(CCCC=CCCCOC(=O)N3CC[C@@](C(=O)N[C@@H](CC(=O)O)C(=O)N[C@@H](Cc4csc5ccccc45)C(=O)N[C@@H](CCC(N)=O)C(N)=O)(C3)NC(=O)[C@H](CC(N)=O)NC(=O)[C@H](Cc3ccccc3)NC(=O)[C@H](C)NC(=O)[C@H](C)NC(=O)[C@H](CN(CC(=O)O)CC(F)(F)F)NC(=O)[C@H](Cc3ccsc3)NC1=O)NC(=O)[C@H](CC(C)(C)C)NC(=O)[C@H](CC(=O)O)NC2=O (stereo partly drawn) [I-1001, Ac-PL3-Asp-Npg-B5-3Thi-TfeGA-Ala-Ala-Phe-Asn-PyrS2-Asp-BztA-Gln-NH2] | −1.2% and 7.5% and 3.5% | −1.5% and 9.3% and 4.5% | −7.0% and −2.8% and 6.1% | −8.0% and −7.6% and −5.0% | −3.6% and −4.8% and −7.4% | −6.7% (2×) and −0.7% | 7220 |  | 1.89 | > 20 | > 20 | TCF Reporter Assay Abs IC50 (uM) [1, 11]: inactive; TCF Reporter Assay Abs IC50 (uM) ([1]; Peptide only): inactive; IC50 [2, 10]: 5530 nM; Nano-BRET Abs IC50 (uM) [3, 11]: inactive; Nano-BRET Abs IC50 (uM) ([3]; Peptide only): inactive
7 | CC(=O)N1CCC[C@]12CC=CCCCC1(CCCC=CCCCOC(=O)N3CC[C@@](C(=O)N[C@@H](Cc4ccccc4C(F)(F)F)C(=O)N[C@@H](Cc4csc5ccccc45)C(=O)N[C@@H](C)C(N)=O)(C3)NC(=O)[C@H](CC(C)C)NC(=O)[C@H](Cc3ccccc3)NC(=O)[C@H](C)NC(=O)[C@H](CCC(N)=O)NC(=O)[C@H](Cn3cc(CC4(C(=O)O)CCCCC4)nn3)NC(=O)[C@H](CC(=O)O)NC1=O)NC(=O)[C@H](CC(C)(C)C)NC(=O)[C@H](CC(=O)O)NC2=O (stereo partly drawn) [I-2520, Ac-PL3-Asp-Npg-B5-Asp-[CH2CChCO2H]TriAzDap-Gln-Ala-Phe-Leu-PyrS2-2F3MeF-BztA-Ala-NH2] |  |  |  |  |  |  |  |  |  | 5.9 |  | IC50 [1, 12]: 5.7 µM; IC50 [2, 13]: 27 nM
8 | CC(=O)N1CCC[C@]12CC=CCCCC1(CCCC=CCCCOC(=O)N3CC[C@@](C(=O)N[C@@H](Cc4ccccc4C(F)(F)F)C(=O)N[C@@H](Cc4csc5ccccc45)C(=O)N[C@@H](CO)C(N)=O)(C3)NC(=O)[C@H](CC(C)C)NC(=O)[C@H](Cc3ccccc3)NC(=O)[C@H](C)NC(=O)[C@H](C)NC(=O)[C@H](Cn3cc(CC4(C(=O)O)CCCCC4)nn3)NC(=O)[C@H](CC(=O)O)NC1=O)NC(=O)[C@H](CC(C)(C)C)NC(=O)[C@H](CC(=O)O)NC2=O (stereo partly drawn) [I-2521, Ac-PL3-Asp-Npg-B5-Asp-[CH2CChCO2H]TriAzDap-Ala-Ala-Phe-Leu-PyrS2-2F3MeF-BztA-Ser-NH2] |  |  |  |  |  |  |  |  |  | 5.6 |  | IC50 [1, 12]: 3 µM; IC50 [2, 13]: 38 nM
